Experimental data reported in patent US6632829B2, “Sulfonamides and derivatives thereof that modulate the activity of endothelin” (Texas Biotechnology Corp., priority 1996, dated 2003).
pEC50, pIC50: −log10 of the molar value. Like-named read-outs stand apart in the source and are kept apart here.

Key:
human ETA receptors = biological target: T1, human ETA receptors (Homo sapiens, UniProt P25101); experiment: Endothelin binding inhibition, Binding Test #1: competition with 125I-ET-1 for ETA receptors on TE 671 cell membranes; conditions: incubation at 24° C. (values marked †)
T1 construct: endogenous in cells; host or cells: TE 671 cells (ATCC HTB 139), membrane preparation
T1 sequence (P25101 21-427): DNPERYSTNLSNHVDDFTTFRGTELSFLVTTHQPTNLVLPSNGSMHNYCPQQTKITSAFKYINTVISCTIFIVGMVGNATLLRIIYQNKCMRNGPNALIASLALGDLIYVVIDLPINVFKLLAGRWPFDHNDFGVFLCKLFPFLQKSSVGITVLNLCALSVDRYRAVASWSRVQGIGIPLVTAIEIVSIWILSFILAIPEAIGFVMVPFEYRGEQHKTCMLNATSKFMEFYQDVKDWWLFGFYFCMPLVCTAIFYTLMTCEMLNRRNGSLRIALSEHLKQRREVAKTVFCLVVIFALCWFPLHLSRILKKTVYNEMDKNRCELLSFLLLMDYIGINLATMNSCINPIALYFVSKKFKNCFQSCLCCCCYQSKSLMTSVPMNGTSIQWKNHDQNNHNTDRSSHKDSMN

human ETB receptor = biological target: T2, human ETB receptor (Homo sapiens, UniProt P24530); experiment: Endothelin binding inhibition, Binding Test #2: competition with 125I-ET-1 for ETB receptors on transfected COS7 cell membranes; conditions: incubation at 24° C. (values marked †)
T2 construct: expressed in transfected cells; host or cells: COS7 cells
T2 sequence (P24530 27-442): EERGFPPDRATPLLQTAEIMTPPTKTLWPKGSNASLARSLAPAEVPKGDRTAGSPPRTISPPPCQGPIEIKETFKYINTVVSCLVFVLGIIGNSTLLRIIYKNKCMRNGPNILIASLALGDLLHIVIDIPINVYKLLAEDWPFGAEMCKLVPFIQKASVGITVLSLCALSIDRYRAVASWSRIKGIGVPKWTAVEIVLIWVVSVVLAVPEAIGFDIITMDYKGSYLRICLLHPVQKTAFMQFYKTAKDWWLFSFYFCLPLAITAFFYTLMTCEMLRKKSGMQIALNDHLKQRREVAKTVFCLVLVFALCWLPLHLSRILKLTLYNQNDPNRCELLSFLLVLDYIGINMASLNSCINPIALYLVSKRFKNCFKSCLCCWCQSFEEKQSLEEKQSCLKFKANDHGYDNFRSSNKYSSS
Summary of the method: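 Membranes from COS7 cells transfected with human ETB receptor, prepared in HEPES pH 7.4 with aprotinin, MnCl2/DNase treatment at 37° C for 30 min. Test compounds compete with 125I-labeled ET-1 for receptor binding; membrane used at 1 μg/50 μL binding buffer.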

Papp = assay type: in vitro ADME; conditions: not told
[1] = Oral half-life and peak plasma levels; assay type: in vivo; conditions: for POt½ in Rat: oral; for Peak Plasma Levels: rat, in vivo
Description: As used herein, bioavailability refers to the rate and extent of absorption. Methods for determining bioavailability are well known to those of skill in the art. For example, bioavailability of any of the compounds described herein can be determined empirically by administration of the compound to an animal, followed by taking blood samples over time and measuring the blood concentration of the compound. In vivo half life (t1/2) is defined as the time it takes for the concentration of the compound in the blood to be reduced by one-half. Estimations of the area under the curve for intravenous administration can be used to estimate the area under the curve for oral administration, ylelding bioavailability data. See, e.g., Milo Gibal (1991) Biopharmaceutics and Pharmacology, 4th edition (Lea and Sediger).
Table 2 lists oral half-life, bioavailability, and in vivo activity of selected exemplary compounds. The in vivo activity was measured in a pulmonary hypertension model and is a measure of the activity of the compounds at selected dosages.

[2] = test system: Pulmonary Hypertension model; experiment: Pulmonary Hypertension model; assay type: in vivo, rat; design: key: ++: effective at 5 mg/kg; −: no effect at 5 mg/kg; +: effective at 15 mg/kg
Experimental: As used herein, efficacy refers to the maximal effect that can be produced by a compound. Efficacy can be determined by methods known to those of skill in the art. For example, it can be determined by the properties of the compound and its receptor-effector system and is reflected in the plateau of the concentration-effect curve. In vivo efficacy refers to efficacy which is determined in an animal model. For example, in vivo efficacy of the compounds described herein can be determined by hypoxia-induced pulmonary hypertension in rat. See, e.g., DiCarlo et al. (1995) Am. J. Physiol. 269:[…]-[…]. Table 2 lists oral half-life, bioavailability, and in vivo activity of selected exemplary compounds. The in vivo activity was measured in a pulmonary hypertension model and is a measure of the activity of the compounds at selected dosages.

ETA receptor = conditions: cited from earlier work
ETB receptors = conditions: at concentrations up to 100 μM; cited from earlier work
isolated vascular strips = conditions: contractile agent; cited from earlier work

| pIC50 (human ETA receptors) | pIC50 (human ETB receptor) | Papp (Papp) | POt½ in Rat [1] | Peak Plasma Levels [1] | Molecule | in vivo Efficacy [2] | other results |
| --- | --- | --- | --- | --- | --- | --- | --- |
| 7.83 | 4.28 | 2.32 ×10⁻⁶ cm/s | 4.1 h | 173 µg/mL | Cc1cc2c(cc1CC(=O)c1sccc1S(=O)(=O)Nc1onc(C)c1Cl)OCO2 [N-(4-chloro-3-methyl-5-isoxazolyl)-2-[2-methyl-4,5-(methylenedioxy)phenylacetyl]thiophene-3-sulfonamide] | ++ | – |
| 8.93 | 4.41 | 1.78 ×10⁻⁶ cm/s | 3.4 h | 40.2 µg/mL | Cc1cc(C)c(NC(=O)c2sccc2S(=O)(=O)Nc2onc(C)c2Cl)c(C)c1CC#N [N-(4-chloro-3-methyl-5-isoxazolyl)-2-(3-cyanomethyl-2,4,6-trimethylphenylaminocarbonyl)thiophene-3-sulfonamide] | ++ | – |
| – | – | – | – | – | cyclo(D-Glu-L-Ala-allo-D-Ile-L-Leu-D-Trp) [BE-18257B] | – | pIC50 (ETA receptor; aortic smooth muscle): 5.85; pIC50 (ETA receptor; cultured aortic smooth muscle cells): 6.30; pIC50 (ETA receptor; ventricle membranes): 6.10; inhibition of binding (ETB receptors): fails to inhibit binding |
| – | – | – | – | – | endothelin-1 | – | pEC50 (isolated vascular strips): 9.40 |
| 7.53 | 4.51 | – | – | – | Cc1noc(NS(=O)(=O)c2ccsc2C(=O)Nc2c(C)c(C)c(C)c(C)c2C)c1Cl [N-(4-chloro-3-methyl-5-isoxazolyl)-2-(pentamethylphenylaminocarbonyl)thiophene-3-sulfonamide] | – | melting point: 196 to 198 °C |
